Laboratory results taken from patent publication US8906897B2, “Antimicrobial agents based on hemin derivatives” (Obschestvo S Ogranichennoi Otvetstvennostiyu …, priority 2009, dated 2014).
Non-standard residues stand in square brackets, D forms with d. Residues, ends and D or L forms follow the SMILES beside them. Orn = NCCC[C@H](N)C(=O)O

Tests used:
[1] = tested on: Cryptococcus neoformans No. 3465; experiment: Antifungal activity, culture growth with pH indicator; assay type: cell-based; parameters: key: (−) No growth; the indicator is blue; (±) Weak growth; the indicator is yellow, but the precipitate of grown cells looks as a diffuse spot; (+) Strong growth; the indicator is yellow, and the cell precipitate looks as a compact spot
Description: (§1) The subjects of action were Cryptococcus neoformans No. 3465 museum strain cells and Candida albicans No. 927 museum strain cells grown for one day on a glucose-peptone-yeast medium at 32° C. The reference compounds were the following antimycotics: pimafucin, amphotericin, and fluconazole.
(§2) Experiments were carried out on round-bottomed 96-well plates (Lenmedpolimer) in two replicas. To the first column (0), added was 10 μL of the stock solution of a water-soluble agent with concentrations of 10^−2 to 10^−3 mol/L; to the second column, added was also the same 10 μL plus 10 μL of the solvent corresponding to the given compound, suspended, 10 μL was transferred to the next well, and so on to the 8th well of the row. Stock solutions of water-insoluble compounds of general formula (I) (compounds V, VIII, XII, XIII, XIV, and hemin) were prepared in DMSO and were diluted with DMSO and the medium. DMSO concentrations in the reaction mixture in a well were ≦5%.
(§3) Then, to every well added was 190 μL of a Cr. neoformans cell culture suspension in a synthetic nutritional medium (so that the final cell concentration was approximately 10^3 CFU/mL), this medium containing Bromocresol Blue as a pH-indicator (pH: 5.5; indicator color: blue). As pH reduced to 4.5, the indicator in the culture changed its color to yellow, thereby indicating fungal cell growth. The synthetic medium comprised the following components: salts, amino acids, microelements, vitamins, an antibiotic, and glucose (30 components altogether) [Yarrow, D., “Methods for the Isolation, Maintenance and Identification of Yeasts,” in: The Yeasts. A Taxonomic Study, Ed. by Kurtsman, C. P, and Fell, M., Elsevier, 1998, pp. 77-100]. After being inoculated with a Cr. neoformans cell suspension, the plate was incubated at 32° C. for 1 h with stirring, then transferred to a stationary thermostat and incubated for two and five days at 27° C. After being inoculated with a C. albicans cell suspension, the plates were incubated for 1 h at 32° C. with stirring, then transferred to a stationary thermostat and incubated for one and four days at 27° C.

human leukocytes = experiment: Cytotoxic activity against human leukocytes; conditions: for toxic effect on human blood leukocytes (in words): concentrations of up to 1 mM, 3 h
Description: Total leukocytes were isolated from human blood by unforced sedimentation using freshly collected venous blood from a healthy donor.
Blood (10 mL) added with 10 units/mL heparin was exposed for 2.5 h in the dark at a temperature of 15 to 18° C. A light-colored liquid supernatant (4 mL) was collected over the layer of sedimenting erythrocytes, washed three times with balanced Hanks's salt solution, and resuspended in the RPMI-1640 medium (added with 8% fetal bovine serum, 2 mM L-glutamine, and 10 mM HEPES; hereinafter, the complete medium).
The concentrations of leukocytes and erythrocytes in the suspension were determined by counts in Goryachev's chamber, after which the suspension was adjusted to a leukocyte concentration of (1.0±0.1)×10^6 cells/mL with the complete medium.
To determine the cytotoxicity of the tested compounds for human leukocytes, the cell suspension was transferred to wells of sterile 96-well plates, tested compounds were added with serial twofold dilutions (the range of tested concentrations was from 3.2 to 100 μM for GrD and gramicidin S; from 8 to 500 μM for compound XIII; and from 8 to 1000 μM for compounds V, VI, VII, VIII, IX, X, XI, XIV, XV, XIX, and Hem), and the mixture was carefully stirred. The experiment was performed in two replicas.
As controls served cells added with an equivalent amount of the solvent in which tested compounds were prepared, namely: water for compounds VII and X; an aqueous solution of DMSO for compounds V, VI, VIII, and IX; and DMSO for GrD, gramicidin S, Hem, XI, XIII, XIV, XV, and XIX. An additional control was an additive-free leukocyte suspension.
Cells were incubated with tested compounds for 3 h (37° C., 5% CO2, 100% humidity). Leukocyte death values were quantified using fluorescence microscopy. Staining with propidium iodide (it permeates only into dead cells nuclei) and Hoechst 33342 (it stains all nuclei) was used to recognize dead and living cells. Cells were incubated for 15 min in plates with propidium iodide and Hoechst 33342 (37° C., 5% CO2), and then the plates were placed under a microscope for analysis.
The dead cell fraction was derived from the fluorescence images of cells obtained in the blue (Hoechst 33342) and red (propidium iodide) spectral ranges using an Axio Observer (Zeiss, Germany) fluorescence microscope equipped with a 10× objective lens (Plan-Neofluar 10×/0.3). The following sets of fluorescence filters were used. For propidium iodide: a 530/585-nm bandpass excitation filter, a 600-nm cut-off dichroic minor, and a 615-nm longpass barrier filter for analysis. For Hoechst 33342: a 359/372-nm bandpass excitation filter, a 395-nm cut-off dichroic mirror, and a 397-nm longpass barrier filter for analysis.
A digital camera recorded three types of cell images: (a) an image in the transmitted white light; (b) a blue fluorescence image obtained with UV excitation, and (c) a red fluorescence image obtained with green light excitation. At least four fields of view were photographed per well in various regions of a well.

Candida albicans No. 927 = experiment: Antifungal activity, culture growth with pH indicator; assay type: cell-based; parameters: key to Test culture growth at various dilutions of the agent: (−) No growth; the indicator is blue; (±) Weak growth; the indicator is yellow, but the precipitate of grown cells looks as a diffuse spot; (+) Strong growth; the indicator is yellow, and the cell precipitate looks as a compact spot
Description: as §1, §2, §3

[2] = dilution : 16 of 5.00 × 10^−4 M
[3] = dilution : 32 of 5.00 × 10^−4 M
[4] = dilution : 64 of 5.00 × 10^−4 M
[5] = dilution : 128 of 5.00 × 10^−4 M

C[C@@H]1[C@H](O)[C@@H](C)/C=C/C=C/C=C/C=C/C=C/C=C/C=C/[C@H](O[C@@H]2O[C@H](C)[C@@H](O)[C@H](N)[C@@H]2O)C[C@@H]2O[C@](O)(C[C@@H](O)C[C@@H](O)[C@H](O)CC[C@@H](O)C[C@@H](O)CC(=O)O[C@H]1C)C[C@H](O)[C@H]2C(=O)O [Amphotericin B, reference compound]
Test culture growth at various dilutions of the agent on day 2 ([1]; dilution 0: 5.00 × 10^−4 M): −** | Test culture growth at various dilutions of the agent on day 2 ([1]; dilution : 2 of 5.00 × 10^−4 M): − | Test culture growth at various dilutions of the agent on day 2 ([1]; dilution : 4 of 5.00 × 10^−4 M): − | Test culture growth at various dilutions of the agent on day 2 ([1]; dilution : 8 of 5.00 × 10^−4 M): − | Test culture growth at various dilutions of the agent on day 2 [1, 2]: − | Test culture growth at various dilutions of the agent on day 2 [1, 3]: − | Test culture growth at various dilutions of the agent on day 2 [1, 4]: − | Test culture growth at various dilutions of the agent on day 2 [1, 5]: −

C=CC1=C(C)c2cc3[n-]c(cc4nc(cc5[n-]c(cc1n2)c(C)c5CCC(=O)NCCC(=O)N[C@@H](Cc1c[nH]cn1)C(=O)O)C(CCC(=O)NCCC(=O)N[C@@H](Cc1c[nH]cn1)C(=O)O)=C4C)c(C)c3C=C.[Cl-].[Fe+3] [Compound X]
Death of leukocytes in the presence of 1 mM of compound (human leukocytes; 1 mM, 3 h incubation): 4.9 ± 0.3% | toxic effect on human blood leukocytes (in words) (human leukocytes): did not cause the death

OC(Cn1cncn1)(Cn1cncn1)c1ccc(F)cc1F [Fluconazole, reference compound]
Test culture growth at various dilutions of the agent on day 2 ([1]; dilution 0: 5.00 × 10^−4 M): ±** | Test culture growth at various dilutions of the agent on day 2 ([1]; dilution : 2 of 5.00 × 10^−4 M): ± | Test culture growth at various dilutions of the agent on day 2 ([1]; dilution : 4 of 5.00 × 10^−4 M): ± | Test culture growth at various dilutions of the agent on day 2 ([1]; dilution : 8 of 5.00 × 10^−4 M): + | Test culture growth at various dilutions of the agent on day 2 [1, 2]: + | Test culture growth at various dilutions of the agent on day 2 [1, 3]: + | Test culture growth at various dilutions of the agent on day 2 [1, 4]: + | Test culture growth at various dilutions of the agent on day 2 [1, 5]: +

CC(C)C[C@@H]1NC(=O)[C@H](CCCN)NC(=O)[C@H](C(C)C)NC(=O)[C@@H]2CCCN2C(=O)[C@@H](Cc2ccccc2)NC(=O)[C@H](CC(C)C)NC(=O)[C@H](CCCN)NC(=O)[C@H](C(C)C)NC(=O)[C@@H]2CCCN2C(=O)[C@@H](Cc2ccccc2)NC1=O [Gramicidin S, reference compound] (cyclo(L[dF]PV[Orn]L[dF]PV[Orn]))
toxic effect on human blood leukocytes (in words) (human leukocytes): fully due to the toxic effect of the solvent

C[C@@H]1C/C=C/C=C/C=C/C=C/[C@H](O[C@@H]2O[C@H](C)[C@@H](O)[C@H](N)[C@@H]2O)C[C@@H]2O[C@](O)(C[C@@H](O)C[C@H]3O[C@@H]3/C=C/C(=O)O1)C[C@H](O)[C@H]2C(=O)O [Pimafucin, reference compound]
Test culture growth at various dilutions of the agent (Candida albicans No. 927; dilution 0: 1 × 10^−4 M): − | Test culture growth at various dilutions of the agent (Candida albicans No. 927; dilution : 2 of 1 × 10^−4 M): − | Test culture growth at various dilutions of the agent (Candida albicans No. 927; dilution : 4 of 1 × 10^−4 M): − | Test culture growth at various dilutions of the agent (Candida albicans No. 927; dilution : 8 of 1 × 10^−4 M): − | Test culture growth at various dilutions of the agent (Candida albicans No. 927; dilution : 16 of 1 × 10^−4 M): − | Test culture growth at various dilutions of the agent (Candida albicans No. 927; dilution : 32 of 1 × 10^−4 M): + | Test culture growth at various dilutions of the agent (Candida albicans No. 927; dilution : 64 of 1 × 10^−4 M): +

N^α-[6(7)-(Protohemin IX)-yl]-ArgArgTrpTrpArgPhe-OH ({protohemin IX}-RRWWRF-OH) [Compound XX]
Test culture growth at various dilutions of the agent (Candida albicans No. 927; dilution 0: 1 × 10^−4 M): ± | Test culture growth at various dilutions of the agent (Candida albicans No. 927; dilution : 2 of 1 × 10^−4 M): ± | Test culture growth at various dilutions of the agent (Candida albicans No. 927; dilution : 4 of 1 × 10^−4 M): ± | Test culture growth at various dilutions of the agent (Candida albicans No. 927; dilution : 8 of 1 × 10^−4 M): ± | Test culture growth at various dilutions of the agent (Candida albicans No. 927; dilution : 16 of 1 × 10^−4 M): ± | Test culture growth at various dilutions of the agent (Candida albicans No. 927; dilution : 32 of 1 × 10^−4 M): ± | Test culture growth at various dilutions of the agent (Candida albicans No. 927; dilution : 64 of 1 × 10^−4 M): ±
